# According to PMC5974403, “The novel histone de acetylase 6 inhibitor, MPT0G211, ameliorates tau phosphorylation and cognitive deficits in an Alzheimer’s disease model” (Cell Death & Disease, 2018):
# Legend:
# SH-SY5Y cells = experiment: Immunoprecipitation/immunoblot of HDAC6, acetyl-lysine, ubiquitin in transfected SH-SY5Y cells; assay type: cell-based, human; conditions: 24 h
# Method: Fig. 4 MPT0G211 increased the ubiquitination of p-tau and degradation by proteasome. a, b SH-SY5Y and Neuro-2a cells were transfected for 24 h with pCAX APP 695 and pRK5-EGFP-Tau P301L and incubated with MPT0G211 or ACY-1215 (0.1 μM) for another 24 h, after which the cell lysates were immunoprecipitated with antibodies against HDAC6, acetyl-lysine (a) or ubiquitin (b) and were subjected to immunoblotting. c Cells were transfected with pCAX APP 695 and pRK5-EGFP-Tau P301L for 24 h and were then incubated with MPT0G211 (0.01–1 μM) for another 24 h. Immunoblots reveal polyubiquitin complexes. d pCAX APP 695 or pRK5-EGFP-Tau P301L were used to transfect the cells for 24 h, incubated with or without MG132 (1 μM) for 30 min, and were then treated with MPT0G211 or ACY-1215 (0.1 μM) for another 24 h. Cell lysates were prepared for western blot analysis of the indicated proteins
# Cells (1 × 10^6) were incubated for 10 min at 4 °C in lysis buffer (20 mM HEPES, pH 7.4, 2 mM EGTA, 50 mM β-glycerophosphate, 0.1% Triton X-100, 10% glycerol, 1 mM dithiothreitol, 1 μg/mL leupeptin, 5 μg/mL aprotinin, 1 mM phenylmethylsulfonyl fluoride, and 1 mM sodium orthovanadate), scraped from the plate, incubated on ice for 10 min, and centrifuged at 17,000 × g for 30 min at 4 °C. Protein samples (30 μg) were electrophoresed through sodium dodecyl sulfate-polyacrylamide gels (SDS-PAGE) and transferred onto a nitrocellulose membrane, which was then blocked by incubation for 30 min at room temperature with 5% fat-free milk in PBS. Immunoblotting was performed by overnight incubation at 4 °C with primary antibodies in PBS, followed by incubation for 1 h at room temperature with HRP-conjugated secondary antibodies. Bound antibodies were measured using ECL reagent (T-Pro Biotechnology, New Taipei City, Taiwan), and the membrane was placed on a photographic film. Cell lysates (30 μg) were incubated with antibodies (1 μg each) and protein A/G agarose beads overnight at 4 °C. The precipitated beads were washed three times with 1 mL of ice-cold cell lysis buffer, and bound immune complexes were separated using 8% SDS-PAGE, followed by immunoblotting using the indicated primary antibody.
# Elevated plus maze = experiment: Elevated plus maze; parameters: species or system rat; conditions: AD in vivo models; stated in introduction only
# Method: The plus maze consisted of two open and two closed arms, connected by a central platform. Animals were individually placed at the end of either of the open arms facing away from the central platform. The time for each rat to move from the open arm to either of the closed arms was recorded. […] These experiments were performed in accordance with relevant ethics guidelines and regulations, which were reviewed and approved by the Animal Use and Management Committee of the College of Medicine, National Taiwan University (IACUC number: 20130361).
smiles,measurement,setting,value
"O=C(NO)c1ccc(CNc2cccc3cccnc23)cc1 [MPT0G211, N-hydroxy-4-((quinolin-8-ylamino)methyl)benzamide]",coimmunoprecipitation of ubiquitin with p-tau (Ser396),SH-SY5Y cells; 0.1 μM,clearly increased
same,HDAC6/Hsp90 binding,"SH-SY5Y cells; 0.1 μM, IP",downregulation
same,acetylation of Hsp90,"SH-SY5Y cells; 0.1 μM, IP",clearly enhanced
same,level of polyubiquitinated proteins,SH-SY5Y cells; 0.01–1 μM,significantly accumulated
same,time spent in finding the closed arm (elevated plus maze) and platform (Morris water maze),Elevated plus maze,reduced the time spent by animals in finding the platform and closed arm
